The source of these data is ChEMBL document CHEMBL1135360, “The design and synthesis of a novel series of indole derived selective ET(A) antagonists” (Bioorg Med Chem Lett, 2002).

In one experiment the target is T1, Endothelin-1 receptor (Homo sapiens, UniProt P25101).
T1 sequence (P25101 whole entry): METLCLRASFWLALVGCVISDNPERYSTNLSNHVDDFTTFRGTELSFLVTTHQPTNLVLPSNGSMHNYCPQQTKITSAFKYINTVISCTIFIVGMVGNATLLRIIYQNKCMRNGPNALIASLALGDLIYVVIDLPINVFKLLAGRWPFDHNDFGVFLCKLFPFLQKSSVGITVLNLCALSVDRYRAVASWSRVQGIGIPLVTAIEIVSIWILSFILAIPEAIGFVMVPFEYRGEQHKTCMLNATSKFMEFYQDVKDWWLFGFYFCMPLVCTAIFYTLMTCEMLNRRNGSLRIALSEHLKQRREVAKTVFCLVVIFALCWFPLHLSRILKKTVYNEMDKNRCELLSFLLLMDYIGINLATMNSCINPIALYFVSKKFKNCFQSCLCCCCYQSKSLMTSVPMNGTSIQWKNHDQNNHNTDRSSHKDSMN
Nature of the experiment: Displacement of [125I]-labeled ET-1 from human cloned endothelin A (ETA) receptor. For orientation: In a radioligand displacement assay an active substance lowers the binding of a labelled ligand.

The target in experiment [1] is T2, Endothelin receptor type B (Homo sapiens, UniProt P24530).
T2 sequence (P24530 whole entry): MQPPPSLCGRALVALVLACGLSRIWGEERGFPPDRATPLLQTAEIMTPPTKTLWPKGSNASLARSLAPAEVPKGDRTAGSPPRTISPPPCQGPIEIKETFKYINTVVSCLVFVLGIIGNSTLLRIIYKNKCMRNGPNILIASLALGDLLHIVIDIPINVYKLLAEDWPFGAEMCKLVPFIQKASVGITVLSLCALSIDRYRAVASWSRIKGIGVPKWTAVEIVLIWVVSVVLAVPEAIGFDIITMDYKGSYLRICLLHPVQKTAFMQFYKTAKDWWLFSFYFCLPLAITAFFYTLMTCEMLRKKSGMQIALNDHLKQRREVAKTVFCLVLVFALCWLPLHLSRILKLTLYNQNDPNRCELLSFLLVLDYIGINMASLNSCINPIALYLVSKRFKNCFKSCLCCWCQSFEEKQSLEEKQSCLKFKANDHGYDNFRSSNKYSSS
Nature of the experiment: Binding affinity towards human cloned endothelin B receptor by [125I]ET1 displacement.

The target of experiment [2] is Endothelin receptor, ET-A/ET-B (Homo sapiens) (UniProt P24530+P25101). Nature of the experiment: Ratio of binding affinity at Endothelin-A receptors compared to Endothelin-B receptors. Type of experiment: protein assay.

Molecules are shown by their SMILES.

On to `CCn1cc(C(C(=O)NS(=O)(=O)c2ccc(C(C)C)cc2)c2ccc3c(c2)OCO3)c2ccc(C(=O)OC)cc21` (stereo unspecified), for which the IC50 (as a rule, the concentration at which inhibition is half-maximal) on Endothelin-1 receptor worked out at 0.21 µM.
Consider `Cc1ccc(S(=O)(=O)NC(=O)C(c2ccc3c(c2)OCO3)c2cn(C)c3cc(C(N)=O)ccc23)cc1` (stereo unspecified), for which the IC50 at Endothelin-1 receptor amounted to 0.0018 µM; in experiment [1], 0.774 µM. Moreover, the Ratio in experiment [2] is 430.
On to `COc1cc(OC)nc(O[C@H](C(=O)O)C(OC)(c2ccccc2)c2ccccc2)n1` [DARUSENTAN], for which the IC50 on Endothelin-1 receptor came out at 0.0008 µM; in experiment [1], 0.016 µM.
Consider `CC(C)c1ccc(S(=O)(=O)NC(=O)C(c2ccc3c(c2)OCO3)c2cn(C)c3cc(-c4nn[nH]n4)ccc23)cc1` (stereo unspecified), for which the IC50 on Endothelin-1 receptor came to 0.035 µM. That is a double-digit nanomolar value.
For the compound `Cc1ccccc1S(=O)(=O)NC(=O)C(c1ccc2c(c1)OCO2)c1cn(C)c2cc(C(N)=O)ccc12` (stereo unspecified), the IC50 at Endothelin-1 receptor is 0.0052 µM; in experiment [1], 1.06 µM. In experiment [2], the Ratio is 203.
`CC(C)c1ccc(S(=O)(=O)NC(=O)C(c2ccc3c(c2)OCO3)c2cn(C)c3cc(CO)ccc23)cc1` (stereo unspecified): the 50% inhibitory concentration (IC50) turned out to be 0.019 µM on Endothelin-1 receptor and 0.45 µM in experiment [1]. Moreover, the Ratio in experiment [2] was determined as 23.7.
In the same order, the values of `Cn1cc(C(C(=O)NS(=O)(=O)c2ccc(Cl)cc2)c2ccc3c(c2)OCO3)c2ccc(C(N)=O)cc21` (stereo unspecified) are 0.0075 µM, 1.1 µM and 146.
The corresponding values for `Cn1cc(C(C(=O)NS(=O)(=O)c2ccccc2)c2ccc3c(c2)OCO3)c2ccc(C(N)=O)cc21` (stereo unspecified) are 0.012 µM, 2.57 µM and 184.
The corresponding values for `CCn1cc(C(C(=O)NS(=O)(=O)c2ccc(C(C)C)cc2)c2ccc3c(c2)OCO3)c2ccc(C(=O)N(C)C)cc21` (stereo unspecified) are 0.072 µM, 0.474 µM and 6.6.
`COc1cc(C)ccc1S(=O)(=O)NC(=O)C(c1ccc2c(c1)OCO2)c1cn(C)c2cc(C(N)=O)ccc12` (stereo unspecified): the half-inhibitory concentration (IC50) was 0.0011 µM on Endothelin-1 receptor and 0.302 µM in experiment [1]. Also, the Ratio in experiment [2] was determined as 275.
In the case of `CC(C)c1ccc(S(=O)(=O)NC(=O)C(c2ccc3c(c2)OCO3)c2cn(C)c3cc(C#N)ccc23)cc1` (stereo unspecified), the half-maximal inhibitory concentration (IC50) on Endothelin-1 receptor stood at 0.061 µM.
As for `Cn1cc(C(C(=O)NS(=O)(=O)c2ccc(C(F)(F)F)cc2)c2ccc3c(c2)OCO3)c2ccc(C(N)=O)cc21` (stereo unspecified), the values for the half-inhibitory concentration (IC50) (at Endothelin-1 receptor; in experiment [1]) were 0.0065 µM and 0.228 µM, respectively. Besides, the Ratio in experiment [2] worked out at 35.
In the same order, the values of `CC(C)c1ccc(S(=O)(=O)NC(=O)C(c2ccc3c(c2)OCO3)c2cn(C)c3cc(C(=O)O)ccc23)cc1` (stereo unspecified) are 0.022 µM, 1.5 µM and 68.2.
In the same order, the values of `COc1ccccc1S(=O)(=O)NC(=O)C(c1ccc2c(c1)OCO2)c1cn(C)c2cc(C(N)=O)ccc12` (stereo unspecified) are 0.005 µM, 0.31 µM and 62.
The corresponding values for `CCn1cc(C(C(=O)NS(=O)(=O)c2ccc(C(C)C)cc2)c2ccc3c(c2)OCO3)c2ccc(C(N)=O)cc21` (stereo unspecified) are 0.0035 µM, 0.068 µM and 19.7.
As for `CCn1cc(C(C(=O)NS(=O)(=O)c2ccc(C(C)C)cc2)c2ccc3c(c2)OCO3)c2ccc(C(=O)NC)cc21` (stereo unspecified), the IC50 worked out at 0.03 µM at Endothelin-1 receptor and 0.21 µM in experiment [1]. Moreover, the Ratio in experiment [2] amounted to 7.
In the same order, the values of `CC(C)c1ccc(S(=O)(=O)NC(=O)C(c2ccc3c(c2)OCO3)c2cn(C)c3cc(CN)ccc23)cc1` (stereo unspecified) are 0.038 µM, 0.204 µM and 5.4.
Consider `CCOc1cc(C)ccc1S(=O)(=O)NC(=O)C(c1ccc2c(c1)OCO2)c1cn(C)c2cc(C(N)=O)ccc12` (stereo unspecified), for which the IC50 on Endothelin-1 receptor was found to be 0.00055 µM; in experiment [1] it was 0.397 µM. Further, the Ratio in experiment [2] was 722.
`Cn1cc(C(C(=O)NS(=O)(=O)c2ccccc2C(=O)O)c2ccc3c(c2)OCO3)c2ccc(C(N)=O)cc21` (stereo unspecified): the half-maximal inhibitory concentration (IC50) at Endothelin-1 receptor came out at 0.0031 µM; in experiment [1] it was 0.846 µM. Further, in experiment [2], the Ratio came out at 272.
In the same order, the values of `CC(C)c1ccc(S(=O)(=O)NC(=O)C(c2ccc3c(c2)OCO3)c2cn(C)c3cc(C(N)=O)ccc23)cc1` (stereo unspecified) are 0.0023 µM, 0.034 µM and 14.8.
The corresponding values for `CCn1cc(C(C(=O)NS(=O)(=O)c2ccc(C(C)C)cc2)c2ccc3c(c2)OCO3)c2ccc(C(=O)O)cc21` (stereo unspecified) are 0.032 µM, 2.2 µM and 68.8.
On Endothelin-1 receptor, `CC(C)c1ccc(S(=O)(=O)NC(=O)C(c2ccc3c(c2)OCO3)c2c[nH]c3cc(C(=O)O)ccc23)cc1` (stereo unspecified) came in with a half-inhibitory concentration (IC50) of 0.031 µM. This lies in the double-digit nanomolar range.
Same read-out and setting: as for `COC(=O)c1ccc2c(C(C(=O)NS(=O)(=O)c3ccc(C(C)C)cc3)c3ccc4c(c3)OCO4)cn(C)c2c1` (stereo unspecified), the figure is 0.1 µM.
With `COc1ccc(S(=O)(=O)NC(=O)C(c2ccc3c(c2)OCO3)c2cn(C)c3cc(C(N)=O)ccc23)cc1` (stereo unspecified), the half-maximal inhibitory concentration (IC50) at Endothelin-1 receptor was found to be 0.0028 µM; in experiment [1] it was 0.094 µM. Besides, in experiment [2], the Ratio is 34.
